Source: PubChem BioAssay AID2060910 (Molecular Pharmacology Branch, DTP, NCI, 2025)

Tested on: 242566-281-R-J2-PDC complex spheroid viability
Test: Anticancer human tumor 242566-281-R-J2-PDC patient-derived pancreatic carcinoma cell line growth inhibition [RAS]
Settings: for IC50: curve of first compound; for viability, T/C: stronger effect = lower value
Procedure, shortened: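 Multi-cell-type spheroids: tumor cells plus HUVEC endothelial cells and mesenchymal stem cells. RAS-pathway inhibitors were combined with targeted agents, each dosed in half-log steps down from clinical Cmax, or from 10 microM when Cmax was unknown.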

[1] = second compound 0.00316 µM, first compound 0.0316 µM
[2] = second compound 0.00316 µM, first compound 0.1 µM
[3] = second compound 0.00316 µM, first compound 0.316 µM
[4] = second compound 0.00316 µM, first compound 1 µM
[5] = second compound 0.00316 µM, first compound 3.16 µM
[6] = second compound 0.00316 µM, first compound 10 µM
[7] = second compound 0.01 µM, first compound 0.0316 µM
[8] = second compound 0.01 µM, first compound 0.1 µM
[9] = second compound 0.01 µM, first compound 0.316 µM
[10] = second compound 0.01 µM, first compound 1 µM
[11] = second compound 0.01 µM, first compound 3.16 µM
[12] = second compound 0.01 µM, first compound 10 µM
[13] = second compound 0.0316 µM, first compound 0.0316 µM
[14] = second compound 0.0316 µM, first compound 0.1 µM
[15] = second compound 0.0316 µM, first compound 0.316 µM
[16] = second compound 0.0316 µM, first compound 1 µM
[17] = second compound 0.0316 µM, first compound 3.16 µM
[18] = second compound 0.0316 µM, first compound 10 µM
[19] = second compound 0.1 µM, first compound 0.0316 µM
[20] = second compound 0.1 µM, first compound 0.1 µM
[21] = second compound 0.1 µM, first compound 0.316 µM
[22] = second compound 0.1 µM, first compound 1 µM
[23] = second compound 0.1 µM, first compound 3.16 µM
[24] = second compound 0.1 µM, first compound 10 µM
[25] = second compound 0.316 µM, first compound 0.0316 µM
[26] = second compound 0.316 µM, first compound 0.1 µM
[27] = second compound 0.316 µM, first compound 0.316 µM
[28] = second compound 0.316 µM, first compound 1 µM
[29] = second compound 0.316 µM, first compound 3.16 µM
[30] = second compound 0.316 µM, first compound 10 µM
[31] = second compound 1 µM, first compound 0.0316 µM
[32] = second compound 1 µM, first compound 0.1 µM
[33] = second compound 1 µM, first compound 0.316 µM
[34] = second compound 1 µM, first compound 1 µM
[35] = second compound 1 µM, first compound 3.16 µM
[36] = second compound 1 µM, first compound 10 µM
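Further: spheroids exposed to compound for 7 days before readout.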
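Wherever viability, T/C is given: 100% = DMSO vehicle control wells.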

## CCC(CC)c1cc(NC2CCC(N)C2)n2nccc2n1 (stereo unspecified) + C=CC(=O)N1CCN(c2nc(OCC3CCCN3C)nc3c(F)c(-c4nc(N)cc(C)c4C(F)(F)F)c(Cl)cc23)C(C)C1
Second compound 0.00316 µM
  IC50: 4.59 µM
Second compound 0.01 µM
  IC50: 4.42 µM
Second compound 0.0316 µM
  IC50: 3.74 µM
Second compound 0.1 µM
  IC50: 4.54 µM
Second compound 0.316 µM
  IC50: 3.76 µM
Second compound 1 µM
  IC50: 4.55 µM
[1]
  viability, T/C: 108%
[2]
  viability, T/C: 141%
[3]
  viability, T/C: 94.3%
[4]
  viability, T/C: 109%
[5]
  viability, T/C: 72.6%
[6]
  viability, T/C: 1.71%
[7]
  viability, T/C: 121%
[8]
  viability, T/C: 146%
[9]
  viability, T/C: 108%
[10]
  viability, T/C: 100%
[11]
  viability, T/C: 72.8%
[12]
  viability, T/C: 1.81%
[13]
  viability, T/C: 129%
[14]
  viability, T/C: 123%
[15]
  viability, T/C: 97.1%
[16]
  viability, T/C: 98%
[17]
  viability, T/C: 58.3%
[18]
  viability, T/C: 1.98%
[19]
  viability, T/C: 137%
[20]
  viability, T/C: 129%
[21]
  viability, T/C: 106%
[22]
  viability, T/C: 96.5%
[23]
  viability, T/C: 82.5%
[24]
  viability, T/C: 1.56%
[25]
  viability, T/C: 149%
[26]
  viability, T/C: 124%
[27]
  viability, T/C: 99.3%
[28]
  viability, T/C: 102%
[29]
  viability, T/C: 62.8%
[30]
  viability, T/C: 1.81%
[31]
  viability, T/C: 125%
[32]
  viability, T/C: 156%
[33]
  viability, T/C: 82.7%
[34]
  viability, T/C: 115%
[35]
  viability, T/C: 75%
[36]
  viability, T/C: 1.22%

## Cc1nc(N2CCC3(CC2)COC(C)C3N)c(CO)nc1Sc1ccnc(N)c1Cl (stereo unspecified) + C=CC(=O)N1CCN(c2nc(OCC3CCCN3C)nc3c(F)c(-c4nc(N)cc(C)c4C(F)(F)F)c(Cl)cc23)C(C)C1
Second compound 0.00316 µM
  IC50: > 10 µM
Second compound 0.01 µM
  IC50: > 10 µM
Second compound 0.0316 µM
  IC50: > 10 µM
Second compound 0.1 µM
  IC50: > 10 µM
Second compound 0.316 µM
  IC50: > 10 µM
Second compound 1 µM
  IC50: > 10 µM
[1]
  viability, T/C: 115%
[2]
  viability, T/C: 136%
[3]
  viability, T/C: 102%
[4]
  viability, T/C: 80.1%
[5]
  viability, T/C: 104%
[6]
  viability, T/C: 105%
[7]
  viability, T/C: 129%
[8]
  viability, T/C: 120%
[9]
  viability, T/C: 89.3%
[10]
  viability, T/C: 70.8%
[11]
  viability, T/C: 94%
[12]
  viability, T/C: 116%
[13]
  viability, T/C: 118%
[14]
  viability, T/C: 124%
[15]
  viability, T/C: 99.1%
[16]
  viability, T/C: 77.4%
[17]
  viability, T/C: 100%
[18]
  viability, T/C: 120%
[19]
  viability, T/C: 157%
[20]
  viability, T/C: 119%
[21]
  viability, T/C: 89.4%
[22]
  viability, T/C: 84.6%
[23]
  viability, T/C: 83.1%
[24]
  viability, T/C: 113%
[25]
  viability, T/C: 132%
[26]
  viability, T/C: 151%
[27]
  viability, T/C: 96%
[28]
  viability, T/C: 85%
[29]
  viability, T/C: 102%
[30]
  viability, T/C: 113%
[31]
  viability, T/C: 141%
[32]
  viability, T/C: 130%
[33]
  viability, T/C: 93.2%
[34]
  viability, T/C: 85.7%
[35]
  viability, T/C: 112%
[36]
  viability, T/C: 113%

## NC1c2ccccc2OC12CCN(c1cnc3c(N4CCCc5ncccc54)n[nH]c3n1)CC2 (stereo unspecified) + C=CC(=O)N1CCN(c2nc(OCC3CCCN3C)nc3c(F)c(-c4nc(N)cc(C)c4C(F)(F)F)c(Cl)cc23)C(C)C1
Second compound 0.00316 µM
  IC50: > 10 µM
Second compound 0.01 µM
  IC50: > 10 µM
Second compound 0.0316 µM
  IC50: > 10 µM
Second compound 0.1 µM
  IC50: > 10 µM
Second compound 0.316 µM
  IC50: > 10 µM
Second compound 1 µM
  IC50: > 10 µM
[1]
  viability, T/C: 104%
[2]
  viability, T/C: 128%
[3]
  viability, T/C: 83.3%
[4]
  viability, T/C: 82.7%
[5]
  viability, T/C: 79.5%
[6]
  viability, T/C: 61.7%
[7]
  viability, T/C: 99%
[8]
  viability, T/C: 122%
[9]
  viability, T/C: 107%
[10]
  viability, T/C: 72.2%
[11]
  viability, T/C: 98.7%
[12]
  viability, T/C: 62.6%
[13]
  viability, T/C: 120%
[14]
  viability, T/C: 126%
[15]
  viability, T/C: 86.9%
[16]
  viability, T/C: 89.3%
[17]
  viability, T/C: 77.1%
[18]
  viability, T/C: 56.2%
[19]
  viability, T/C: 124%
[20]
  viability, T/C: 129%
[21]
  viability, T/C: 98.8%
[22]
  viability, T/C: 67.5%
[23]
  viability, T/C: 73.3%
[24]
  viability, T/C: 54.7%
[25]
  viability, T/C: 124%
[26]
  viability, T/C: 138%
[27]
  viability, T/C: 87%
[28]
  viability, T/C: 84.4%
[29]
  viability, T/C: 76.2%
[30]
  viability, T/C: 56.8%
[31]
  viability, T/C: 122%
[32]
  viability, T/C: 119%
[33]
  viability, T/C: 76.1%
[34]
  viability, T/C: 87.4%
[35]
  viability, T/C: 91%
[36]
  viability, T/C: 60.4%
